Reference: patent publication US9751890B2, “Heteroaryl derivatives as CFTR modulators” (Vertex Pharmaceuticals Incorporated, priority 2008, dated 2017)

Target: T1, ΔF508-CFTR (Homo sapiens, UniProt P13569, DEL508-508)
T1 construct: expressed in transfected cells
Experiment: Membrane potential optical assay for ΔF508-CFTR correction (single-addition HTS format)
Format: cell-based
Settings: NIH3T3 mouse fibroblasts stably expressing ΔF508-CFTR; 16-24 hrs with compound; activation with 10 μM forskolin and 20 μM genistein; read-out: BinnedMaxEfficacy (PercentActivity)
Source text: Membrane potential optical methods for assaying ΔF508-CFTR modulation properties of compounds.
The assay utilizes fluorescent voltage sensing dyes to measure changes in membrane potential using a fluorescent plate reader (e.g., FLIPR III, Molecular Devices, Inc.) as a readout for increase in functional ΔF508-CFTR in NIH 3T3 cells. The driving force for the response is the creation of a chloride ion gradient in conjunction with channel activation by a single liquid addition step after the cells have previously been treated with compounds and subsequently loaded with a voltage sensing dye.
To identify small molecules that correct the trafficking defect associated with ΔF508-CFTR; a single-addition HTS assay format was developed. Assay Plates containing cells are incubated for ˜2-4 hours in tissue culture incubator at 37° C., 5% CO2, 90% humidity. Cells are then ready for compound exposure after adhering to the bottom of the assay plates.
The cells were incubated in serum-free medium for 16-24 hrs in tissue culture incubator at 37° C., 5% CO2, 90% humidity in the presence or absence (negative control) of test compound. The cells were subsequently rinsed 3× with Krebs Ringers solution and loaded with a voltage sensing redistribution dye. To activate ΔF508-CFTR, 10 μM forskolin and the CFTR potentiator, genistein (20 μM), were added along with Cl^−-free medium to each well. The addition of Cl^−-free medium promoted Cl^− efflux in response to ΔF508-CFTR activation and the resulting membrane depolarization was optically monitored using voltage sensor dyes.
Bath Solution #1: (in mM) NaCl 160, KCl 4.5, CaCl2 2, MgCl2 1, HEPES 10, pH 7.4 with NaOH.
Chloride-free bath solution: Chloride salts in Bath Solution #1 are substituted with gluconate salts.
NIH3T3 mouse fibroblasts stably expressing ΔF508-CFTR are used for optical measurements of membrane potential. The cells are maintained at 37° C. in 5% CO2 and 90% humidity in Dulbecco's modified Eagle's medium supplemented with 2 mM glutamine, 10% fetal bovine serum, 1×NEAA, β-ME, 1× pen/strep, and 25 mM HEPES in 175 cm^2 culture flasks. For all optical assays, the cells were seeded at ˜20,000/well in 384-well matrigel-coated plates and cultured for 2 hrs at 37° C. before culturing at 27° C. for 24 hrs. for the potentiator assay. For the correction assays, the cells are cultured at 27° C. or 37° C. with and without compounds for 16-24 hours.

T1 sequence (P13569 with tags, fused parts or gaps DEL508-508): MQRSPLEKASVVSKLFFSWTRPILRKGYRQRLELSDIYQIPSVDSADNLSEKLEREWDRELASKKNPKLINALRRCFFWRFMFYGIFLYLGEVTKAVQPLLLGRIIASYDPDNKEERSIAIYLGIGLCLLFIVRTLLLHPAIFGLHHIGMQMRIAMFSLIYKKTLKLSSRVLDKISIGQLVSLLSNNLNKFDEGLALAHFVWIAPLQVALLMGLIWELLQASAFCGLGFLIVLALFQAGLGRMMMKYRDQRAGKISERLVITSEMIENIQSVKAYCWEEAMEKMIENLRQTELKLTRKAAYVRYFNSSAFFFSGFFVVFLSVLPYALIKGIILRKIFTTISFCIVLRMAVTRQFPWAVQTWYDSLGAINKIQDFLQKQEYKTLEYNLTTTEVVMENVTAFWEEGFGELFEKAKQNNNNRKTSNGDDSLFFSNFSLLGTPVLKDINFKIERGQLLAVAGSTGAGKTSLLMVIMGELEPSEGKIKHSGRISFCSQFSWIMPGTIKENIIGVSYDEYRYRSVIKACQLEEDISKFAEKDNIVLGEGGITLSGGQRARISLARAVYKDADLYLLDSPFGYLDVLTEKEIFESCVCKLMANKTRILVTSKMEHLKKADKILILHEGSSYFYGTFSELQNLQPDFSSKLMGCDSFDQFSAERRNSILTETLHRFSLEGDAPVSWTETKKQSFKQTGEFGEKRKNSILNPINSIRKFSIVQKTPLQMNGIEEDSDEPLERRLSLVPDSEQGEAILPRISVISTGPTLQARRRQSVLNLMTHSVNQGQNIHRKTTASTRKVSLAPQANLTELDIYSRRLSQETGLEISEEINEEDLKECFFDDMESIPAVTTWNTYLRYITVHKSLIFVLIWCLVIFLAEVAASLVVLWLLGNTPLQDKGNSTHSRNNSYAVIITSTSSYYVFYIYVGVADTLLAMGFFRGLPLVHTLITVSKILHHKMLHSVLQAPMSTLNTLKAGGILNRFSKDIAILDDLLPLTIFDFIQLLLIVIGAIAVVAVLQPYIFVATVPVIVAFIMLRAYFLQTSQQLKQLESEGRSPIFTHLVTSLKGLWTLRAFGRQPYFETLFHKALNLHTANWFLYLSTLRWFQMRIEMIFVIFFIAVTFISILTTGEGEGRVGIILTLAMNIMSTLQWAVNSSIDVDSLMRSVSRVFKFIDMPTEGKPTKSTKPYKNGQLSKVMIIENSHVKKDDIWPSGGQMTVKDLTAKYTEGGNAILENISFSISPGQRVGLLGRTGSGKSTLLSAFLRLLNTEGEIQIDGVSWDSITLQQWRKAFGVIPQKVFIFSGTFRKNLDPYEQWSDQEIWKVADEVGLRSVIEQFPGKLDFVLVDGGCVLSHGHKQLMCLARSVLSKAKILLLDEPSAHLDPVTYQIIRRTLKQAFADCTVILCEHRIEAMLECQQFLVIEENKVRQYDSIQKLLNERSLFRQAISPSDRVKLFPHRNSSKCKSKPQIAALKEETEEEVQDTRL

Row | Emax | SMILES
1 | 25 to 100% | Cc1ncc(NC(=O)C2(c3ccc4c(c3)OCO4)CC2)cc1-c1cccc(C(=O)O)c1 [Compound 38, 3-(5-(1-(benzo[d][1,3]dioxol-5-yl)cyclopropanecarboxamido)-2-methylpyridin-3-yl)benzoic acid]
2 | 25 to 100% | CNC(=O)c1ccc(-c2cc(NC(=O)C3(c4ccc5c(c4)OCO5)CC3)cnc2C)cc1 [Compound 16, 4-(5-(1-(benzo[d][1,3]dioxol-5-yl)cyclopropanecarboxamido)-2-methylpyridin-3-yl)-N-methylbenzamide]
3 | > 100% | COc1ccccc1Cc1cc(NC(=O)C2(c3ccc4c(c3)OCO4)CC2)ccn1 [Compound 47]
4 | 25 to 100% | COc1ccc(C2(C(=O)Nc3cnccn3)CC2)cc1 [Compound 21]
5 | > 100% | O=C(Nc1ccnc(Cc2ccccc2)c1)C1(c2ccc3c(c2)OCO3)CC1 [Compound 36, 1-(benzo[d][1,3]dioxol-5-yl)-N-(2-benzylpyridin-4-yl)cyclopropanecarboxamide]
6 | 25 to 100% | Cc1cc(O)nc(NC(=O)C2(c3ccc4c(c3)OCO4)CC2)n1 [Compound 35, 1-(benzo[d][1,3]dioxol-5-yl)-N-(4-hydroxy-6-methylpyrimidin-2-yl)cyclopropanecarboxamide]
7 | 25 to 100% | Cc1ncc(NC(=O)C2(c3ccc4c(c3)OCO4)CC2)cc1-c1ccc(C(N)=O)cc1 [Compound 39]
8 | > 100% | O=C(Nc1ccc(-c2ccccc2)nc1)C1(c2ccc3c(c2)OCO3)CC1 [Compound 32, 1-(benzo[d][1,3]dioxol-5-yl)-N-(6-phenylpyridin-3-yl)cyclopropanecarboxamide]
9 | > 100% | O=C(Nc1ccc(Cc2ccccc2)nc1)C1(c2ccc3c(c2)OCO3)CC1 [Compound 19, 1-(benzo[d][1,3]dioxol-5-yl)-N-(6-benzylpyridin-3-yl)cyclopropanecarboxamide]
10 | 25 to 100% | O=C(Nc1ccc(Cc2ccccc2Cl)nn1)C1(c2ccc3c(c2)OCO3)CC1 [Compound 46]
11 | 25 to 100% | CC(C)c1ccc(NC(=O)C2(c3ccc4c(c3)OCO4)CC2)cn1 [Compound 31, 1-(Benzo[d][1,3]dioxol-5-yl)-N-(6-isopropylpyridin-3-yl)cyclopropanecarboxamide]
12 | > 100% | Cc1ncc(NC(=O)C2(c3ccc4c(c3)OCO4)CC2)cc1-c1ccc(S(=O)(=O)N(C)C)cc1 [Compound 8]
13 | > 100% | CNS(=O)(=O)c1ccc(-c2cc(NC(=O)C3(c4ccc5c(c4)OCO5)CC3)cnc2C)cc1 [Compound 30, 1-(benzo[d][1,3]dioxol-5-yl)-N-(6-methyl-5-(4-(N-methylsulfamoyl)phenyl)pyridin-3-yl)cyclopropanecarboxamide]
14 | > 100% | O=C(Nc1cncc(Cc2ccccc2)n1)C1(c2ccc3c(c2)OCO3)CC1 [Compound 27, 1-(benzo[d][1,3]dioxol-5-yl)-N-(6-benzylpyrazin-2-yl)cyclopropanecarboxamide]
15 | 25 to 100% | Cc1ncc(NC(=O)C2(c3ccc4c(c3)OCO4)CC2)cc1-c1cccc(S(=O)(=O)N(C)C)c1 [Compound 6]
16 | 25 to 100% | O=C(Nc1ncc2c(n1)-c1ccoc1CC2)C1(c2ccc3c(c2)OCO3)CC1 [Compound 23, 1-(benzo[d][1,3]dioxol-5-yl)-N-(5,6-dihydrofuro[2,3-h]quinazolin-2-yl)cyclopropanecarboxamide]
17 | > 100% | COc1ccccc1Cc1ccc(NC(=O)C2(c3ccc4c(c3)OCO4)CC2)cn1 [Compound 3]
18 | 25 to 100% | O=C(Nc1ccc(CC2CCCCC2)nn1)C1(c2ccc3c(c2)OCO3)CC1 [Compound 5, 1-(benzo[d][1,3]dioxol-5-yl)-N-(6-(cyclohexylmethyl)pyridazin-3-yl)cyclopropanecarboxamide]
19 | > 100% | COc1cc(NC(=O)C2(c3ccc4c(c3)OCO4)CC2)nc(OC)n1 [Compound 22, 1-(benzo[d][1,3]dioxol-5-yl)-N-(2,6-dimethoxypyrimidin-4-yl)cyclopropanecarboxamide]
20 | 25 to 100% | Cc1ncc(NC(=O)C2(c3ccc4c(c3)OCO4)CC2)cc1-c1cccc(S(N)(=O)=O)c1 [Compound 20, 1-(benzo[d][1,3]dioxol-5-yl)-N-(6-methyl-5-(3-sulfamoylphenyl)pyridin-3-yl)cyclopropanecarboxamide]

Row | Emax | SMILES
21 | > 100% | CC(Oc1ccc(Cl)cc1)c1ccnc(NC(=O)C2(c3ccc4c(c3)OCO4)CC2)n1 (stereo not shown) [Compound 14, 1-(benzo[d][1,3]dioxol-5-yl)-N-(4-(1-(4-chlorophenoxy)ethyl)pyrimidin-2-yl)cyclopropanecarboxamide]
22 | 25 to 100% | Cc1cnc(NC(=O)C2(c3ccc4c(c3)OC(F)(F)O4)CC2)nc1-c1ccc(C(=O)O)cc1 [Compound 11, 4-(2-(1-(2,2-difluorobenzo[d][1,3]dioxol-5-yl)cyclopropanecarboxamido)-5-methylpyrimidin-4-yl)benzoic acid]
23 | > 100% | COc1ccccc1Cc1ccc(NC(=O)C2(c3ccc4c(c3)OCO4)CC2)nn1 [Compound 4]
24 | > 100% | Cc1ncc(NC(=O)C2(c3ccc4c(c3)OCO4)CC2)cc1-c1cccc(CO)c1 [Compound 40]
25 | 25 to 100% | Cc1c(NC(=O)C2(c3ccc4c(c3)OC(F)(F)O4)CC2)ccnc1-c1cccc(C(=O)O)c1 [Compound 9]
26 | 25 to 100% | Cc1ncc(NC(=O)C2(c3ccc4c(c3)OCO4)CC2)cc1-c1cccc(C(N)=O)c1 [Compound 17]
27 | 25 to 100% | Cc1ccnc(NC(=O)C2(c3ccc4c(c3)OCO4)CC2)n1 [Compound 25, 1-(benzo[d][1,3]dioxol-5-yl)-N-(4-methylpyrimidin-2-yl)cyclopropanecarboxamide]
28 | 25 to 100% | Cc1cccc(Oc2ccc(NC(=O)C3(c4ccc5c(c4)OCO5)CC3)cn2)c1C [Compound 26, 1-(benzo[d][1,3]dioxol-5-yl)-N-(6-(2,3-dimethylphenoxy)pyridin-3-yl)cyclopropanecarboxamide]
29 | > 100% | COc1ccccc1Nc1ccc(NC(=O)C2(c3ccc4c(c3)OCO4)CC2)cn1 [Compound 43, 1-(benzo[d][1,3]dioxol-5-yl)-N-(6-(2-methoxyphenylamino)pyridin-3-yl)cyclopropanecarboxamide]
30 | 25 to 100% | Cc1cnc(NC(=O)C2(c3ccc4c(c3)OC(F)(F)O4)CC2)nc1-c1ccc(=O)[nH]c1 [Compound 28, 1-(2,2-difluorobenzo[d][1,3]dioxol-5-yl)-N-(5-methyl-4-(6-oxo-1,6-dihydropyridin-3-yl)pyrimidin-2-yl)cyclopropanecarboxamide]
31 | > 100% | COc1ccccc1-c1ccc(NC(=O)C2(c3ccc4c(c3)OCO4)CC2)cn1 [Compound 24, 1-(benzo[d][1,3]dioxol-5-yl)-N-(6-(2-methoxyphenyl)pyridin-3-yl)cyclopropanecarboxamide]
32 | 25 to 100% | O=C(N(c1ccnc(C(F)(F)F)c1)c1ccccn1)C1(c2ccc3c(c2)OCO3)CC1 [Compound 41, 1-(benzo[d][1,3]dioxol-5-yl)-N-(pyridin-2-yl)-N-(2-(trifluoromethyl)pyridin-4-yl)cyclopropanecarboxamide]
33 | 25 to 100% | COc1ccc(-c2nc(NC(=O)C3(c4ccc5c(c4)OC(F)(F)O5)CC3)ncc2C)cn1 [Compound 10, 1-(2,2-difluorobenzo[d][1,3]dioxol-5-yl)-N-(4-(6-methoxypyridin-3-yl)-5-methylpyrimidin-2-yl)cyclopropanecarboxamide]
34 | 25 to 100% | Cc1cnc(NC(=O)C2(c3ccc4c(c3)OC(F)(F)O4)CC2)nc1-c1cccc(C(=O)O)c1 [Compound 45, 3-(2-(1-(2,2-difluorobenzo[d][1,3]dioxol-5-yl)cyclopropanecarboxamido)-5-methylpyrimidin-4-yl)benzoic acid]
35 | > 100% | O=C(Nc1ccc(Cc2ccccc2Cl)nc1)C1(c2ccc3c(c2)OCO3)CC1 [Compound 37, 1-(benzo[d][1,3]dioxol-5-yl)-N-(6-(2-chlorobenzyl)pyridin-3-yl)cyclopropanecarboxamide]
36 | 25 to 100% | O=C(Nc1ccc(Cc2ccccc2)nn1)C1(c2ccc3c(c2)OCO3)CC1 [Compound 44]
37 | > 100% | COc1ccccc1Nc1cnc(NC(=O)C2(c3ccc4c(c3)OCO4)CC2)cn1 [Compound 2, 1-(benzo[d][1,3]dioxol-5-yl)-N-(5-(2-methoxyphenylamino)pyrazin-2-yl)cyclopropanecarboxamide]
38 | 25 to 100% | COc1ccccc1Cc1cnc(NC(=O)C2(c3ccc4c(c3)OCO4)CC2)cn1 [Compound 34]
39 | 25 to 100% | Cc1ncc(NC(=O)C2(c3ccc4c(c3)OCO4)CC2)cc1-c1ccc(CO)cc1 [Compound 29]
40 | > 100% | O=C(Nc1cnc(Cc2ccccc2)cn1)C1(c2ccc3c(c2)OCO3)CC1 [Compound 12]
